In a melting point compilation (Tetko et al.; mined from patent text by program, amines drawn as free bases though some values may be those of a salt):

SMILES | melting point
COc1ccc(-c2c3cccc(C(F)(F)F)c3nn2CC2CCCCC2)c(OC)c1 | 156 to 157 °C
COc1ccc(C(C=NO)C(C)C)cc1OC (stereo not drawn) | 89 °C
CCn1cc(C(=O)O)c(=O)c2cc(F)c(N3CCN(C(C)=O)CC3)cc21 | 300 °C
COc1ccc(-c2nc3nccnc3[nH]2)c(OCC#N)c1 | 232 to 233 °C
COC(=O)C(C#N)=Cc1cccs1 | 104 to 106 °C
O=C(c1ccncc1)N1CCC(=C2c3ccccc3CCn3ccnc32)CC1 | 207 to 209 °C
OC1CSC(Oc2cncc(-c3ccc(F)cc3Cl)c2)C(O)C1O (stereo not drawn) | 208 to 211 °C
CNC(=O)[C@H](C)C[C@H](O)[C@H](CC1CCCCC1)NC(=O)OC(C)(C)C | 144 to 145 °C
CC(C)(O)CNc1nccc(-c2c(-c3ccc(F)cc3F)nc3c(CC4CC4)nccn23)n1 | 174 to 176 °C
N#Cc1cccc(CN2CCN(c3ccc(NC(=O)c4ccccc4OCc4ccc(C(F)(F)F)cc4)cc3)CC2)c1 | 190 to 191 °C
O=C1c2ccccc2CCn2c(SC(F)(F)F)ccc21 | 95 to 95.5 °C
CN1C(=O)C2(CCNCC2)c2ccccc21 | 146 to 151 °C
CC(C)(O)Cn1cnc2c(N)nc3ccccc3c21 | 270 to 272 °C
CN1CCN(C2=Nc3ccccc3Nc3ccsc32)CC1 | 202 to 206 °C
CC(=O)Oc1ccc(-c2cnc(N(S(C)(=O)=O)S(C)(=O)=O)c(Cc3ccccc3)n2)cc1 | 166 to 167 °C
COc1cc2c(cc1OC)CC(NCC(N)=O)C2 | 135 to 138 °C

SMILES | melting point
CCCCc1nc(SCCOC(C)=O)c(C(=O)OCC)[nH]1 | 68 °C
COC(=O)NC(=S)Nc1ccon1 | 165 to 167 °C
CCOC1Nc2c(ccc(OC)c2O)C(=O)N2CCCC12 (stereo not drawn) | 155 to 158 °C
CC(C)(C)n1nnc(Cc2ccc(CBr)cc2)n1 | 73 to 74 °C
NC(=O)c1c(Cl)cc(Cl)c(O)c1Cl | 204 to 206 °C
O=C(NCC1CC1)c1cc2nccnc2c(Cl)c1NC(=O)c1cc(C(F)(F)F)nn1-c1ncccc1Cl | 180 to 183 °C
O=C(NC(CS)Cc1ccccc1)N1C=CC=CC1 (single isomer, unassigned; (+)) | 115 to 117 °C
CC(C)(C)Nc1nc(Cl)c(C#N)cc1F | 84 to 85 °C
CCCS(=O)(=O)Oc1c(C(=O)c2ccc3c(c2C)C(N(C)C(=O)OC)CCS3(=O)=O)cnn1CC (stereo not drawn) | 156 to 159 °C
COc1cc2c(cc1Nc1ncc(Cl)c(N[C@@H]3[C@H](C(N)=O)[C@H]4C=C[C@@H]3C4)n1)CCOC(=O)N2C | 168 to 170 °C
Oc1ccc(-c2ccc(-c3ccc(O)cc3)c(-c3ccc(OCCN4CCCC4)cc3)n2)cc1 | 145 to 150 °C
COc1ccc(N(c2ccc(-c3ccc(N(c4ccc(OC)cc4)c4cccc(C(F)(F)F)c4)cc3)cc2)c2cccc(C(F)(F)F)c2)cc1 | 134 °C
Cc1cc(C(N)=O)ncc1C(c1c(F)ccc(F)c1F)S(=O)(=O)CC1CC(F)(F)C1 (stereo not drawn) | 205 to 207 °C
CC1(C)CCC(C)(C)c2cc(-c3cc4ccc(C(=O)O)cc4s3)c(Br)cc21 | 272 to 275 °C
O=c1oc2c(c(O)c1C(c1ccccc1)C1CC1)CCCCCCCCCC2 (stereo not drawn) | 97.8 to 99 °C
N#Cc1cnn2c(-c3ccccc3)ccnc12 | 230 to 232 °C

Second part, the compound after the results:

melting point | SMILES
210 to 211 °C | Oc1cccc(/C=C/c2nc3ccccc3s2)c1
109 to 110 °C | CCOC(=O)C(=NO)c1cccc(C(=O)c2ccccc2)c1
135 to 137 °C | CNc1nc(-c2cccc(NC(=O)c3cccnc3N3CCCC3)c2)c2cc(OC)c(OC)cc2n1
159 to 160 °C | COC(=O)c1c(CSc2nccn2C)nc2cc(OC)c(OC)cc2c1-c1ccc(OC)c(OC)c1
81 to 82 °C | CCOC(=O)c1ccc(-c2nc(-c3ccccc3)ccc2Cl)cc1
207 °C | Nc1nccc(Oc2ccc3c(c2)CCCCN3C(=O)Nc2cccc(C(F)(F)F)c2)n1
160 to 162 °C | CC(C)N(CCNC(=O)c1csc(NC(=O)C2=CC=CC(=Nc3ccc[nH]3)C2)n1)C(C)C
189 °C | NS(=O)(=O)c1cccc(-c2cn(-c3nc(-c4ccc(Cl)s4)cc(C(F)(F)F)n3)cn2)c1
296 to 300 °C | O=C1Cc2c3c(cc4ccccc24)N(c2ccccc2)C(=O)CN13
285 to 286 °C | CCn1ncc2c1ncc1c(=O)[nH]c3cc(C)nn3c12
184 °C | CCc1cc(C#N)cc(C(=O)Nc2ccc(F)cn2)n1
215 to 217 °C | Cc1cc2cnn(CCO)c2cc1Nc1nnc2n1[C@H](c1ccc(F)cc1)COC2
126 to 127 °C | Cn1c(=O)ccc2cc(COc3cc(F)cc(C4CCOCC4)c3)ccc21
187 to 188 °C | O=[N+]([O-])c1cc(Cl)ccc1NCCSSCCNc1ccc(Cl)cc1[N+](=O)[O-]
260 to 263 °C | CCOCCn1cc2c(C3C(=O)Nc4ccc(Br)cc43)nc(Cl)nc2n1 (stereo not drawn)
98 to 98.5 °C | CSc1nc2ccccc2n1C1CCN(CCCC(=O)c2ccc(F)cc2)CC1
221 to 223 °C | O=C(O)Cc1cccc2c(=O)cc(-c3cc(F)cc(F)c3)oc12
> 300 °C | Cc1[nH]c(=O)c(C(N)=O)cc1-c1ccc2nccn2c1

melting point | SMILES
199 to 202 °C | CN(C(N)=O)C1c2ccccc2Oc2ccccc21
146 °C | CC(=O)Oc1ccc(Oc2ccc(NC(=O)Nc3cc(C(C)(C)C)on3)cc2)cc1
162 to 163 °C | O=C1c2ccc(F)cc2C(=O)N1c1cc([N+](=O)[O-])c(Cl)cc1F
176 to 177 °C | CC(C)Cn1c(CO)c(-c2ccccc2)c2cc(Br)ccc2c1=O
108 to 110 °C | CCOC(=O)c1cnn2c1NCC=C2c1cccc(C(F)(F)F)c1
205 to 207 °C | O=C(NCc1cccc(OCCOc2nc[nH]n2)c1)c1nc2ccc(F)c(F)c2c(=O)[nH]1
110 °C | CCOC(=O)NC(=O)c1nn(-c2cc(Cl)c(C(C)(C)C#N)c(Cl)c2)c(=O)[nH]c1=O
80 to 82 °C | CCCCOCCOc1ccc(-c2ccc3c(c2)C=C(C(=O)OC)CCN3c2ccccc2)cc1
189 to 190 °C | CCOC(=O)c1cc(NCc2ccccc2)c(Oc2ccc(OC)cc2)c(S(N)(=O)=O)c1
203 to 206 °C | Cc1cc(N2CCc3ncccc3C2)nc(N2CCCC2)c1NC(=O)Cc1cc(F)cc(F)c1
98 to 100 °C | COC(=O)CCC(=O)c1ccc(SC(=O)N(C)C)cc1
114 °C | N#Cc1cccc(Oc2ccnc(Cl)c2)n1
182 to 184 °C | O=C(CNC(=O)C(Cc1ccccc1)NC(=O)C1CCCN1)Oc1c(Cl)c(Cl)c(Cl)c(Cl)c1Cl (stereo not drawn)
197 to 201 °C | O=C(CCC(NS(=O)(=O)c1ccc2oc3ccccc3c2c1)C(=O)O)NCCc1ccccc1 (stereo not drawn)
234 to 235 °C | NC(=O)c1ccc(N2CCN(Cc3cn4cc(Cl)cc(Cl)c4n3)CC2)cc1
157 to 158 °C | CCCC(=O)Nc1c(C(=O)c2cccc(Cl)c2)[nH]c2cc(Cl)ccc12
171 °C | CCOc1ccc2c(c1)n(-c1ccccn1)c(=O)n2S(=O)(=O)c1ccc(NC(=O)N(CC)CC)cc1OC
238 to 239 °C | O=C(O)COc1ccc(C(=O)CCN2CCN(c3ccncc3)CC2)cc1
